We go through four molecules from PMC7822474, “Repurposing the McoTI-II Rigid Molecular Scaffold in to Inhibitor of ‘Papain Superfamily’ Cysteine Proteases” (Pharmaceuticals, 2020).

Where no end group is shown, it is not given here.

Assay [1] deals with trypsin. Description: Inhibition of trypsin by recombinant McoTI-II (ZFR-AMC substrate). In kind it is biochemical.
The target in assay [2] is trypsin.
Assay [3] relates to papain. Briefly: Proteolytic activity assay, BSA digestion by papain on SDS-PAGE. It is filed as biochemical. Particulars: BSA 1.0 mg/mL, 0.1 M sodium acetate pH 5.5, 0.1% SDS, E:S 1:10, 40 °C, 8 min, preincubated with papain. The method, then:
The protein substrate, BSA, at a concentration of 1.0 mg/mL in 0.1 M sodium acetate buffer (pH 5.5) containing 0.1% SDS was incubated with papain, papain preincubated with E-64, and papain preincubated with Mco-CPI protein. The papain enzyme used was pre-activated with 2 mM dithiothreitol. The ratio of enzyme to the substrate (E:S) was maintained at 1:10. The digestion was allowed to be carried at 40 °C for 8 min. This method was adapted from Zucker et al., 1985 [59]. The degradation products of each reaction were analysed on 12% SDS-PAGE gel.

Assay [4] concerns papain. Particulars: E-64 and its derivatives; cited from earlier work.
In assay [5] the test system is trypsin. The following applies: cited from earlier work. The source says: McoTI-II is a stable cyclic peptide found in seeds of the plant Momordica cochinchinensis. It belongs to the trypsin inhibitor subfamily of cyclotides and has been the most preferred framework for grafting and engineering novel biological activities. […] A range of substitutions in the trypsin inhibitory reactive site (loop 1) and the P1 residue have been used to develop a series of McoTI-I analogs with specificity towards alternate proteases with moderate affinity. […] Therefore, we expect that a modification involving a backbone cyclization would lead to further improvement in the e ...

The IC50 is the concentration at which inhibition is half-maximal. Turning to “McoTI-II recombinant protein: McoTI-II protein with tags, recombinantly expressed as starting control (SGSDGGVCPKILKKCRRDSDCPGACICRGNGYCG; ends and bridges not checked; also: with tags (recombinant); UniProt P82409 1-34, looked up)”, the “% trypsin inhibition, concentration dependence (in words)” value in assay [1] (Supplementary Figure S6E) is “An increase in % trypsin inhibition”. The half-maximal inhibitory concentration (IC50) in assay [1] (ZFR-AMC substrate, 50 mM Tris-HCl pH 8.0, 50 mM NaCl, 5 mM CaCl2, three technical replicates, read-out: IC50 against trypsin) was 2120 nM.

For “McoTI-II (Momordica cochinchinensis trypsin inhibitor-II), recombinant protein with tags (from UniProt P82409 1-34) (natural protein)”, the inhibition of trypsin activity on ZFR-AMC (fluorescence), 50 mM Tris-HCl pH 8.0, 50 mM NaCl, 5 mM CaCl2 in assay [2] was determined as 2.12 µM.

Turning to `CC(C)C[C@H](NC(=O)[C@H]1O[C@@H]1C(=O)O)C(=O)NCCCCN=C(N)N` [E-64], the “inhibition of papain proteolytic activity on BSA (in words)” value in assay [3] is listed as “completely inhibit the proteolytic activity of papain with no digestion products observed on the gel”. Also, the “IC50 against papain (in words)” value in assay [4] is listed as “nanomolar range”.

With “McoTI-II: stable cyclic peptide found in seeds of the plant Momordica cochinchinensis (cyclo(SGSDGGVCPKILKKCRRDSDCPGACICRGNGYCG); disulfide (positions not given here); ends not checked; also: three disulfides, pairing not given here; UniProt P82409 1-34, looked up)”, the “trypsin inhibition range (in words)” value in assay [5] (McoTI-II purified from plant sources or chemically synthesized as a cyclic molecule) was “sub-nM range”. Besides, the “trypsin inhibitory activity (in words)” value in assay [5] (natural McoTI-II) is “potent (sub-nM)”.
